In PubChem BioAssay AID328 (DTP/NCI, 2004):
“And” between values parts separate entries of the source, which are not always exact repeats. Equal entries are not always repeated. Toxic doses and inconclusive results are not listed. Rule for the calls: active = survival T/C of 150% or more; inactive = T/C below 125% in these data.

Tested on: BDF1 mice, P388 leukemia ip, median survival T/C
Assay: NCI In Vivo Anticancer Drug Screen. Data for tumor model P388 Leukemia (intraperitoneal) in B6D2F1 (BDF1) mice
Conditions: endpoint: median survival time, higher = longer survival
How it was run: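 Mice carrying the transplantable tumour receive compound or vehicle. Survival is followed in each arm, and the treated measure is divided by the vehicle measure.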

[1] = dose: 100.0 mg/kg/injection, schedule: Q04DX003 (ip), vehicle: saline with Tween-80
[2] = dose: 50.0 mg/kg/injection, schedule: Q04DX003 (ip), vehicle: Klucel (hydroxypropylcellulose) (HPC)
[3] = dose: 100.0 mg/kg/injection, schedule: Q04DX003 (ip), vehicle: Klucel (hydroxypropylcellulose) (HPC)
[4] = dose: 200.0 mg/kg/injection, schedule: Q04DX003 (ip), vehicle: Klucel (hydroxypropylcellulose) (HPC)
[5] = dose: 50.0 mg/kg/injection, schedule: Q01DX009 (ip), vehicle: saline with Tween-80
[6] = dose: 100.0 mg/kg/injection, schedule: Q01DX009 (ip), vehicle: saline with Tween-80
[7] = dose: 50.0 mg/kg/injection, schedule: Q04DX002 (ip), vehicle: saline with Tween-80
[8] = dose: 100.0 mg/kg/injection, schedule: Q04DX002 (ip), vehicle: saline with Tween-80
[9] = dose: 200.0 mg/kg/injection, schedule: Q04DX002 (ip), vehicle: saline with Tween-80
[10] = dose: 25.0 mg/kg/injection, schedule: Q01DX009 (ip), vehicle: saline with Tween-80
[11] = dose: 50.0 mg/kg/injection, schedule: Q01DX009 (ip), vehicle: Klucel (hydroxypropylcellulose) (HPC)

Measured: T/C

CC(C)CCSc1nc(N)nc2nc[nH]c12
inactive: dose: 100.0 mg/kg/injection, schedule: Q01DX009 (ip), vehicle: other 86 % of control | [1] 100 % of control | dose: 200.0 mg/kg/injection, schedule: Q01DX009 (ip), vehicle: other 90 % of control | dose: 200.0 mg/kg/injection, schedule: Q04DX003 (ip), vehicle: saline with Tween-80 109 % of control | dose: 400.0 mg/kg/injection, schedule: Q01DX009 (ip), vehicle: other 109 % of control | dose: 400.0 mg/kg/injection, schedule: Q04DX003 (ip), vehicle: saline with Tween-80 109 % of control

NN(c1ccccc1)c1ccc2ccccc2c1
inactive: [2] 95 % of control | [3] 104 % of control | [4] 109 % of control

Cc1ccc(N2C(=O)CSC2=S)cc1
inactive: [5] 105 % of control | [6] 95 % of control | dose: 200.0 mg/kg/injection, schedule: Q01DX009 (ip), vehicle: saline with Tween-80 95 % of control

CN(/N=C/C(O)C(O)C(O)CO)c1ccccc1 (stereo not given)
inactive: [2] 105 % of control | [3] 105 % of control | [4] 100 % of control

CCN(CC)C(=S)S
inactive: dose: 100.0 mg/kg/injection, schedule: Q01DX009 (ip), vehicle: saline sonified 104 % of control | dose: 200.0 mg/kg/injection, schedule: Q01DX009 (ip), vehicle: saline sonified 100 % of control | dose: 400.0 mg/kg/injection, schedule: Q01DX009 (ip), vehicle: saline sonified 118 % of control | dose: 400.0 mg/kg/injection, schedule: Q01DX010 (ip), vehicle: water 100 % of control

CNC(=O)O/N=C(\CN=[N+]=[N-])C(C)(C)C
inactive: dose: 0.2 mg/kg/injection, schedule: Q01DX009 (ip), vehicle: saline 92 % of control | dose: 0.39 mg/kg/injection, schedule: Q01DX009 (ip), vehicle: saline 88 % of control | dose: 0.78 mg/kg/injection, schedule: Q01DX009 (ip), vehicle: saline 122 % of control

COCCCC/C(=N\OCCN)c1ccc(C(F)(F)F)cc1
inactive: dose: 50.0 mg/kg/injection, schedule: Q01DX009 (ip), vehicle: saline 103 % of control | dose: 100.0 mg/kg/injection, schedule: Q01DX009 (ip), vehicle: saline 112 % of control | dose: 200.0 mg/kg/injection, schedule: Q01DX009 (ip), vehicle: saline 108 % of control

COc1ccc(OC)c2c1C(SC)C(=O)N2C (stereo not given)
inactive: [7] 100 % of control | [8] 100 % of control | [9] 107 % of control

CCc1cccc(CC)c1N1C(=O)C=CC1=O
inactive: dose: 1.56 mg/kg/injection, schedule: Q01DX009 (ip), vehicle: saline with Tween-80 114 % of control | dose: 3.13 mg/kg/injection, schedule: Q01DX009 (ip), vehicle: saline with Tween-80 100 % of control | dose: 6.25 mg/kg/injection, schedule: Q01DX009 (ip), vehicle: saline with Tween-80 106 % of control | dose: 12.5 mg/kg/injection, schedule: Q01DX009 (ip), vehicle: saline with Tween-80 99 % of control

NC(N)=NCCCCCCC(=O)Nc1ccc(S(N)(=O)=O)cc1
inactive: [10] 112 % of control | [5] 106 % of control | [6] 97 % of control

COC(=O)CCc1c[nH]c2ccc(N(CCCl)CCCl)cc12
active: dose: 0.1 mg/kg/injection, schedule: Q01DX009 (ip), vehicle: saline with Tween-80 154 % of control and 163 % of control | dose: 0.2 mg/kg/injection, schedule: Q01DX009 (ip), vehicle: saline with Tween-80 172 % of control | dose: 0.25 mg/kg/injection, schedule: Q04DX003 (ip), vehicle: saline with Tween-80 166 % of control | dose: 0.3 mg/kg/injection, schedule: Q01DX009 (ip), vehicle: saline with Tween-80 155 % of control and 181 % of control | dose: 0.5 mg/kg/injection, schedule: Q04DX003 (ip), vehicle: saline with Tween-80 170 % of control | dose: 0.8 mg/kg/injection, schedule: Q01DX009 (ip), vehicle: saline with Tween-80 166 % of control | dose: 1.0 mg/kg/injection, schedule: Q04DX003 (ip), vehicle: saline with Tween-80 241 % of control | dose: 1.25 mg/kg/injection, schedule: Q01DX009 (ip), vehicle: saline with Tween-80 196 % of control and 212 % of control | dose: 1.3 mg/kg/injection, schedule: Q04DX003 (ip), vehicle: saline with Tween-80 205 % of control | dose: 2.0 mg/kg/injection, schedule: Q04DX003 (ip), vehicle: saline with Tween-80 265 % of control and 217 % of control | dose: 2.5 mg/kg/injection, schedule: Q01DX009 (ip), vehicle: saline with Tween-80 250 % of control | dose: 3.0 mg/kg/injection, schedule: Q04DX003 (ip), vehicle: saline with Tween-80 260 % of control and 290 % of control | dose: 4.4 mg/kg/injection, schedule: Q04DX003 (ip), vehicle: saline with Tween-80 280 % of control and 300 % of control | dose: 4.5 mg/kg/injection, schedule: Q04DX003 (ip), vehicle: saline with Tween-80 260 % of control | dose: 6.7 mg/kg/injection, schedule: Q04DX003 (ip), vehicle: saline with Tween-80 300 % of control | dose: 6.75 mg/kg/injection, schedule: Q04DX003 (ip), vehicle: saline with Tween-80 260 % of control | dose: 10.0 mg/kg/injection, schedule: Q04DX003 (ip), vehicle: saline with Tween-80 200 % of control | dose: 40.0 mg/kg/injection, schedule: Q04DX003 (ip), vehicle: saline with Tween-80 272 % of control
inactive: dose: 0.03 mg/kg/injection, schedule: Q04DX003 (ip), vehicle: saline with Tween-80 105 % of control | dose: 0.04 mg/kg/injection, schedule: Q01DX009 (ip), vehicle: saline with Tween-80 122 % of control | dose: 0.16 mg/kg/injection, schedule: Q04DX003 (ip), vehicle: saline with Tween-80 113 % of control | dose: 0.63 mg/kg/injection, schedule: Q04DX003 (ip), vehicle: saline with Tween-80 113 % of control | dose: 15.0 mg/kg/injection, schedule: Q04DX003 (ip), vehicle: saline with Tween-80 120 % of control

c1ccc(C2OC3(CCCCC3)C[N+]23CCCC3)cc1 (stereo not given)
inactive: [10] 95 % of control | [5] 113 % of control | dose: 50.0 mg/kg/injection, schedule: Q04DX003 (ip), vehicle: saline with Tween-80 100 % of control | [1] 87 % of control

OCC1OC(OC2(CO)OC(CO)C(O)C2O)C(O)C(O)C1O (stereo not given)
inactive: dose: 11.0 mg/kg/injection, schedule: Q01DX009 (ip), vehicle: saline 118 % of control | dose: 22.0 mg/kg/injection, schedule: Q01DX009 (ip), vehicle: saline 113 % of control and 115 % of control | dose: 67.0 mg/kg/injection, schedule: Q01DX009 (ip), vehicle: saline 115 % of control and 122 % of control | dose: 100.0 mg/kg/injection, schedule: Q01DX010 (ip), vehicle: saline 115 % of control | dose: 200.0 mg/kg/injection, schedule: Q01DX010 (ip), vehicle: saline 103 % of control | dose: 400.0 mg/kg/injection, schedule: Q01DX010 (ip), vehicle: saline 100 % of control | dose: 600.0 mg/kg/injection, schedule: Q01DX010 (ip), vehicle: saline 115 % of control

O=C(O)CC1(c2cccc3ccccc23)OC(=O)c2ccccc21 (stereo not given)
inactive: dose: 100.0 mg/kg/injection, schedule: Q01DX001 (ip), vehicle: saline with Tween-80 112 % of control | dose: 200.0 mg/kg/injection, schedule: Q01DX001 (ip), vehicle: saline with Tween-80 88 % of control | dose: 400.0 mg/kg/injection, schedule: Q01DX001 (ip), vehicle: saline with Tween-80 97 % of control

COC(=O)C1C2CCc3cc(OC)ccc3C2CC(=O)C1(C)C(=O)OC (stereo not given)
inactive: dose: 100.0 mg/kg/injection, schedule: Q04DX003 (sc), vehicle: steriod suspending solution 109 % of control | dose: 200.0 mg/kg/injection, schedule: Q04DX003 (sc), vehicle: steriod suspending solution 90 % of control | dose: 400.0 mg/kg/injection, schedule: Q04DX003 (sc), vehicle: steriod suspending solution 95 % of control

Nc1nc(=S)c2[nH]c(N=Nc3ccc(S(=O)(=O)Nc4ncccn4)cc3)nc2[nH]1
inactive: [11] 118 % of control | [2] 108 % of control | dose: 100.0 mg/kg/injection, schedule: Q01DX009 (ip), vehicle: Klucel (hydroxypropylcellulose) (HPC) 100 % of control | [3] 108 % of control | dose: 200.0 mg/kg/injection, schedule: Q01DX009 (ip), vehicle: Klucel (hydroxypropylcellulose) (HPC) 86 % of control | [4] 112 % of control

CSc1c(C)[nH]c2c(C)cccc12
inactive: [7] 100 % of control | [8] 100 % of control | [9] 105 % of control

CN1CCC(C(c2ccccc2)c2ccccc2)C1 (stereo not given)
inactive: [11] 109 % of control
